In PMC8231556, “Inhibiting Endothelial Cell Function in Normal and Tumor Angiogenesis Using BMP Type I Receptor Macrocyclic Kinase Inhibitors” (Cancers, 2021):

What was measured:
Test in all cases: radiometric kinase profiling (33 PanQinase)
Assay type in all cases: biochemical
PHKG2 = molecular target: T1, PHKG2 (Homo sapiens, UniProt P15735); conditions: read-out: Inhibitory effect (%) PHKG2
T1 construct: purchased ProQinase (33PanQinase Activity Assay)
T1 sequence (P15735 1-406): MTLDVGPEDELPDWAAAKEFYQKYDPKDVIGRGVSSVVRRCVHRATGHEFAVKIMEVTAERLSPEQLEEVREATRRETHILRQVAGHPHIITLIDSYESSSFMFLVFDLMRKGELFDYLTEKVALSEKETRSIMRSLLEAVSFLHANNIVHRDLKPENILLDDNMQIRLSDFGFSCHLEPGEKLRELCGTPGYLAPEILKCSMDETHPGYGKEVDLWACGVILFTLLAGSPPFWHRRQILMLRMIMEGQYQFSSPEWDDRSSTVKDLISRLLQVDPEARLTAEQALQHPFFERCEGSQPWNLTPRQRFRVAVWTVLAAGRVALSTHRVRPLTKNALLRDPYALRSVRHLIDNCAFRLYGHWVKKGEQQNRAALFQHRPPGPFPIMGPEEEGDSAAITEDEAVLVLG
How it was run: (§1)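 Enzyme/substrate mixes were incubated with [γ-33P]-ATP and compound (added as a 0.1 μM solution in 10% DMSO) at 30 °C for 60 min, then stopped with H3PO4 and washed with NaCl. 33P incorporation was scintillation-counted, and residual activity (%) was normalized to untreated control and background.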

MAPK14 = molecular target: T2, MAPK14 (Homo sapiens, UniProt Q16539); conditions: read-out: Inhibitory effect (%) MAPK14
T2 construct: purchased ProQinase (33PanQinase Activity Assay)
How it was run: as §1

IRAK4 = molecular target: T3, IRAK4 (Homo sapiens, UniProt Q9NWZ3); conditions: read-out: Inhibitory effect (%) IRAK4
T3 construct: purchased ProQinase (33PanQinase Activity Assay)
T3 sequence (Q9NWZ3 1-460): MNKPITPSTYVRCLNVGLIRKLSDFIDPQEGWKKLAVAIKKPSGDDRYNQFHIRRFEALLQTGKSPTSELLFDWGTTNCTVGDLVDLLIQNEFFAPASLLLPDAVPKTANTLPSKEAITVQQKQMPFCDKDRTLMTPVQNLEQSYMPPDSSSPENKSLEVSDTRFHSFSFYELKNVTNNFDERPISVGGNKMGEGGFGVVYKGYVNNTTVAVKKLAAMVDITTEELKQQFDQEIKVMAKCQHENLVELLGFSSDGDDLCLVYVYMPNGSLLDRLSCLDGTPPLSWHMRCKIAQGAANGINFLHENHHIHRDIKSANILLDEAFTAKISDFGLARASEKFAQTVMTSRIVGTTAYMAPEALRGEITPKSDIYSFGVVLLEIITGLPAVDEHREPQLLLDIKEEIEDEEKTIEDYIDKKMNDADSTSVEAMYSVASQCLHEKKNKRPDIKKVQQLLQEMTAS
How it was run: as §1

RIPK2 = molecular target: T4, RIPK2 (Homo sapiens, UniProt O43353); conditions: read-out: Inhibitory effect (%) RIPK2
T4 construct: purchased ProQinase (33PanQinase Activity Assay)
How it was run: as §1

NEK1 = molecular target: T5, NEK1 (Homo sapiens, UniProt Q96PY6); conditions: read-out: Inhibitory effect (%) NEK1
T5 construct: purchased ProQinase (33PanQinase Activity Assay)
T5 sequence (Q96PY6 1-1258): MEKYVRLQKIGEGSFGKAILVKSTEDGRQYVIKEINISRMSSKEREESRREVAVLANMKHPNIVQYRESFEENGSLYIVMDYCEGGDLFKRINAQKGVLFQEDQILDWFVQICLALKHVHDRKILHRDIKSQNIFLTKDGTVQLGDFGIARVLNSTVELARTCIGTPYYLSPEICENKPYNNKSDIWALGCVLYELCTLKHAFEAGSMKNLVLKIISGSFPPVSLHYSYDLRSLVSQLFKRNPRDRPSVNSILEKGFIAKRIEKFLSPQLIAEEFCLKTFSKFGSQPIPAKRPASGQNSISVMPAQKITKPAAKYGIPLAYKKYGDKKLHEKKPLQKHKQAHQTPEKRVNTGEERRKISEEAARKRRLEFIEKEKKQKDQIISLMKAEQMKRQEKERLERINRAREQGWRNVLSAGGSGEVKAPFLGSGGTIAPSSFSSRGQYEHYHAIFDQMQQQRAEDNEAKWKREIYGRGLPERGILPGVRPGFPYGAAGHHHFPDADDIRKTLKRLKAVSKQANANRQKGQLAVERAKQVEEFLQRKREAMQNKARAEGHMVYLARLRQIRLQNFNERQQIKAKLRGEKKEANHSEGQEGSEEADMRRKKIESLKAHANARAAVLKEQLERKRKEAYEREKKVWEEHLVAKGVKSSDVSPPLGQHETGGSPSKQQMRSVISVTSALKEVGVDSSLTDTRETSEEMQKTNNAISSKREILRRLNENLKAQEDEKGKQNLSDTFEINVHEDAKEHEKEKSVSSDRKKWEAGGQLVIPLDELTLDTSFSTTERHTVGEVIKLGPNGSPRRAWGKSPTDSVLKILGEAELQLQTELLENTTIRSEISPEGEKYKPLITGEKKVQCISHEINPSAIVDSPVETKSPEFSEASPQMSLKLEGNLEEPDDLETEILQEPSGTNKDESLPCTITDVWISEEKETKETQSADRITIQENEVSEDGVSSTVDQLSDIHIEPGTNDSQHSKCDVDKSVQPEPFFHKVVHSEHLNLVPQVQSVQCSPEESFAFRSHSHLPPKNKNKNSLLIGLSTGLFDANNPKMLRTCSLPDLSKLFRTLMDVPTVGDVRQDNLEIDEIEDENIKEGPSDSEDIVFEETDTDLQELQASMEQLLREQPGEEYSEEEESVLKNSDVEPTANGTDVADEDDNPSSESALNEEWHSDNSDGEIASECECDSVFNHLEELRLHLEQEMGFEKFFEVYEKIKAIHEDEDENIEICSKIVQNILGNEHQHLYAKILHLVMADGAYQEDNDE
How it was run: as §1

FER = molecular target: T6, FER (Homo sapiens, UniProt P16591); conditions: read-out: Inhibitory effect (%) FER
T6 construct: purchased ProQinase (33PanQinase Activity Assay)
How it was run: as §1

ROCK2 = molecular target: T7, ROCK2 (Homo sapiens, UniProt O75116); conditions: read-out: Inhibitory effect (%) ROCK2
T7 construct: purchased ProQinase (33PanQinase Activity Assay)
How it was run: as §1

T7 sequence (O75116 whole entry): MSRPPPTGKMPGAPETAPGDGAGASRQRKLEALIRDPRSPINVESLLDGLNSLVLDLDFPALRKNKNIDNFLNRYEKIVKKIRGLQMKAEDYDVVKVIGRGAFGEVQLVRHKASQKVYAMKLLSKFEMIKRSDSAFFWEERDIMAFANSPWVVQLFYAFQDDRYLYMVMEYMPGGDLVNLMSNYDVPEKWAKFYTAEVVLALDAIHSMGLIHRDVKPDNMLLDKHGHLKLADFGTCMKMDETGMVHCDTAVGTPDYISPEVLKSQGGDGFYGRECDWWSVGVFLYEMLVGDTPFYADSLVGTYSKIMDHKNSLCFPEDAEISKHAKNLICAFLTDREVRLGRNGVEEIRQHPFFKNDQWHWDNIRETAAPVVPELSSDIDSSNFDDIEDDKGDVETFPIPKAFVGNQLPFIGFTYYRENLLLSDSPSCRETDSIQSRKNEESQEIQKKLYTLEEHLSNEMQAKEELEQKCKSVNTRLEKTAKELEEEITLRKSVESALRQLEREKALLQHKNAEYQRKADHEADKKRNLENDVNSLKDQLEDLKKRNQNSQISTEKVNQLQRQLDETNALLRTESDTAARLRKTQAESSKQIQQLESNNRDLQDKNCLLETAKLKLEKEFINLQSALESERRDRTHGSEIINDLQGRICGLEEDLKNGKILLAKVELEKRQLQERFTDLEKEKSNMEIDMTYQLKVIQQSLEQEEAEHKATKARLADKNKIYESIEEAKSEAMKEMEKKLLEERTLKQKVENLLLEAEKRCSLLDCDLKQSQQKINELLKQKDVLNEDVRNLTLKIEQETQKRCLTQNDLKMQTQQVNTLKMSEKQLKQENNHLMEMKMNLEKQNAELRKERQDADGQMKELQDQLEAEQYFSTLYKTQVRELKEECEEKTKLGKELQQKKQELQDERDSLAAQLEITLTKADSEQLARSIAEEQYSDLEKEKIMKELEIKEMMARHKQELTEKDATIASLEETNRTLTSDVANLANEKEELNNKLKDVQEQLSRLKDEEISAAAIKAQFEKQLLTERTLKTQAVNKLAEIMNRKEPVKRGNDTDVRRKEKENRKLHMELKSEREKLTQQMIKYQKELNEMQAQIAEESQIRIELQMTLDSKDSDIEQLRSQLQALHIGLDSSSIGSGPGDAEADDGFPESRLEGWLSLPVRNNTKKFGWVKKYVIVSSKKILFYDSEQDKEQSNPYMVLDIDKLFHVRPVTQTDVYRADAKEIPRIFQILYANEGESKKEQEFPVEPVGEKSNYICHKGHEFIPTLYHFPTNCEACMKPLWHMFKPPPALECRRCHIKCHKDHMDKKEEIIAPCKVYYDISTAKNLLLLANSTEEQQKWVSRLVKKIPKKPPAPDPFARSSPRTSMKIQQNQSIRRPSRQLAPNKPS
T6 sequence (P16591 whole entry): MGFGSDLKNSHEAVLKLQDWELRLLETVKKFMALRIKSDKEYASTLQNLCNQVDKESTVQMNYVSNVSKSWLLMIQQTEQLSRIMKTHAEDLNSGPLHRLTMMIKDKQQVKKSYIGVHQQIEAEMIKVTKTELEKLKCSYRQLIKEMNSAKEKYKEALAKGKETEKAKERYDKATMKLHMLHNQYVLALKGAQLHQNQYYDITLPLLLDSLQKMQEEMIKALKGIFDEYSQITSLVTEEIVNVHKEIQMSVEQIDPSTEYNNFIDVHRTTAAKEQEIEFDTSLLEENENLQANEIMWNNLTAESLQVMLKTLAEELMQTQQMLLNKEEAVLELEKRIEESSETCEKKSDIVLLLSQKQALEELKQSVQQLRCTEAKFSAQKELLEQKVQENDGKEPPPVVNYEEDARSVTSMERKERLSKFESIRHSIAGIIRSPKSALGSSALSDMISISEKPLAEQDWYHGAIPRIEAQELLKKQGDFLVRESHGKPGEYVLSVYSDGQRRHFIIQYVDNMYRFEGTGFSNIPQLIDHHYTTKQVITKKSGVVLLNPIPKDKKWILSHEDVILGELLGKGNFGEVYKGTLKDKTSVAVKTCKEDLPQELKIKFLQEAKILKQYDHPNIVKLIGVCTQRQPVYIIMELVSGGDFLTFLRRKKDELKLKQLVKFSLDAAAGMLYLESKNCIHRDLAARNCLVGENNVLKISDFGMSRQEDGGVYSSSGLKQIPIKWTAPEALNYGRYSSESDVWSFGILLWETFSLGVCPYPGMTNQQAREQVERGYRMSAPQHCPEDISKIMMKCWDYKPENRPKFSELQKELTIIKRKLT
T2 sequence (Q16539 whole entry): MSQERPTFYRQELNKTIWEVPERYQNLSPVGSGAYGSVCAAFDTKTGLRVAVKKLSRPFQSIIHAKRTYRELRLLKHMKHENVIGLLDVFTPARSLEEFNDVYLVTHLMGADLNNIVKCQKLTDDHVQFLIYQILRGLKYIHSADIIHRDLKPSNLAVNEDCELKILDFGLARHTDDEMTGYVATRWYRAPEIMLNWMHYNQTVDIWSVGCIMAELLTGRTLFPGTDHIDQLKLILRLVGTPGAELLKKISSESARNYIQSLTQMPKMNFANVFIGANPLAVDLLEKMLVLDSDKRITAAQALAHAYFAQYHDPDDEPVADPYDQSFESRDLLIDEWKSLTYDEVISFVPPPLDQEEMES
T4 sequence (O43353 whole entry): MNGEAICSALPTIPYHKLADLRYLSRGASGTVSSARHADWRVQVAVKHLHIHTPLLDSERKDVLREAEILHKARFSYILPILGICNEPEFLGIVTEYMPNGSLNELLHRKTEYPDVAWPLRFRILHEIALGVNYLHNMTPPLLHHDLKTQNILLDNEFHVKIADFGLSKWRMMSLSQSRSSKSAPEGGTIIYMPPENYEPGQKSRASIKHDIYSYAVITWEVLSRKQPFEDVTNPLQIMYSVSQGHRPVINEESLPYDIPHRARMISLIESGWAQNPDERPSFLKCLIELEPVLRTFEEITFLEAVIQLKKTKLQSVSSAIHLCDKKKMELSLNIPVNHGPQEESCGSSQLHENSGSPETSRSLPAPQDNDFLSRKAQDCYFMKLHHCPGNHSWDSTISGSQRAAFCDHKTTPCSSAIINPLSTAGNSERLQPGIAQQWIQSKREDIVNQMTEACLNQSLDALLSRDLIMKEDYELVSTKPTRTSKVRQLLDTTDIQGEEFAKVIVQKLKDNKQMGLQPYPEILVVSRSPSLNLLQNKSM

| Compound | inhibition at 0.1 µM (PHKG2) | inhibition at 0.1 µM (MAPK14) | inhibition at 0.1 µM (IRAK4) | inhibition at 0.1 µM (RIPK2) | inhibition at 0.1 µM (NEK1) | inhibition at 0.1 µM (FER) | inhibition at 0.1 µM (ROCK2) |
| --- | --- | --- | --- | --- | --- | --- | --- |
| c1ccc2c(-c3cnn4cc(-c5ccc(N6CCNCC6)cc5)cnc34)ccnc2c1 [LDN-193189, reference compound] | -23.6% | 0.3% | -6.28% | 91.1% | -11.9% | 14.4% | 13.1% |
| CN1CCc2cccc(c2)Nc2nccc(n2)N2CCCc3cc(ccc32)C1 [OD16] | 1.87% | -3.1% | 4.7% | 36.5% | -6.3% | -18.9% | 42.6% |
| CN1CCC(=O)NCCNc2ccn3ncc(c3n2)-c2cccc(c2)C1 [OD29] | -1.93% | 45.2% | 26.4% | 62.5% | 12.6% | -7.91% | -0.26% |
